Results: patent US20240058240A1, “COMPOUNDS AS SELF-TANNING SUBSTANCES AND TANNING COMPOSITIONS THEREOF” (CHEMCOM S.A., priority 2020, published 2024)

The molecules below were run against T1, OR7C1 (Homo sapiens, UniProt O76099) (assay: Luciferase-based CRE gene reporter assay, dose-response on OR7C1). Conditions: negative logarithm of the EC50 in Moles; semi-logarithmic dilutions from 1 mM to 316 nM on OR7C1.
T1 construct: transfected with a plasmid containing the CRE-luciferase and a plasmid containing the olfactory receptor; expressed in transfected cells; host or cells: HEK293T-RTP1A1/RTP2 (HEK293T stably expressing the chaperones RTP1A1 and RTP2)
T1 sequence (O76099 1-320): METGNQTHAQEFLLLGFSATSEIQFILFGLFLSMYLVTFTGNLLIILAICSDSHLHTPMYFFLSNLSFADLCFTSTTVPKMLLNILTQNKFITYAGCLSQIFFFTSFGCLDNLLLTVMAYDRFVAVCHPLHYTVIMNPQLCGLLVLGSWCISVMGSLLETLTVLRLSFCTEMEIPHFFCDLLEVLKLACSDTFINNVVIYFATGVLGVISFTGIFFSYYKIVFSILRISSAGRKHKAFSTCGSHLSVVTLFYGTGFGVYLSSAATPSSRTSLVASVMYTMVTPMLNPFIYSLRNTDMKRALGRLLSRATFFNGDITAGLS
Format: cell-based
Method: HEK293T-RTP1A1/RTP2 cells were maintained in minimal essential medium (EMEM, Lonza) containing 10% fetal bovine serum (M10). These cells were generated by transfecting HEK293T (Thermofisher Scientific, cat ref: R70007) with an expression vector containing the sequences of the chaperone proteins RTP1A1 and RTP2 and a resistance gene to puromycin, using Lipofectamine 2000. The recombinant cell population, used in these experiments, was selected by adding 10 μg/ml of puromycin into the culture medium and subsequently subcloned (WO 2014/191047 A1).
Potential OR7C1 agonists were diluted at a concentration of 1 mole/liter (M) into an organic solvent such as Dimethyl Sulfoxide (DMSO) or Ethanol to generate stock solutions. […]
For concentration-response analysis, serial dilutions of the tested molecules were prepared from stock solutions in EMEM plated into 96-well plates.
For the dose-response analysis, a Luciferase-based gene reporter assay (Promega, Leiden, the Netherlands) was used. Briefly, cells were platted on poly-D-lysine-coated 96-well plates and transfected with a plasmid containing the CRE-luciferase and a plasmid containing the olfactory receptor. Sixteen hours after transfection, the culture medium was replaced by serum-free EMEM containing the tested compounds at a determined concentration. After four hours of incubation at 37° C., cells were lysed and processed for luminescence measurement. Luminescence emission was recorded. Results were expressed as luciferase activity ([…] (RLU)) or as percentage of the response induced by 10 μM of the adenylate cyclase activator Forskolin. An empty plasmid is used as negative control.
Dose-response analyses using the luciferase-based reporter assay were performed using semi-logarithmic serial dilutions of the compounds, from 1 mM to 316 nM, on OR7C1. 46 compounds were tested in concentration-response analyses. In each experiment, an empty vector (pEFIBRHO) was used as negative control. Values are given as the negative logarithm of the EC50 in Moles.

Point of comparison: Hydroxyambran [Compound 41], “-LogEC50 (average n > 3)” value 5.5. Against it:
- 2-(2,2,7,7-Tetramethyl-5-tricyclo[6.2.1.01,6]undec-4-enyl)butan-1-ol [Compound 28] — higher, 6.6
- 5-(1-Methoxybutan-2-yl)-2,2,7,7-tetramethyltricyclo[6.2.1.01,6]undec-5-ene [Compound 29] — lower, 5.2

Same assay, conditions: negative logarithm of the EC50 in Moles; semi-logarithmic dilutions from 1 mM to 316 nM on OR7C1; read-out: -LogEC50 (average n > 3) (converted)

Point of comparison: CC1CCC2C(C2(C)C)C12COC(C)(C)OC2 (centres unmarked) [Compound 12, Spirambrene], EC50 12.6 µM. Against it:
- CCCC(O)COC1C(C)CCCC1(C)C (mixture of isomers) [Compound 14, 1-((2,2,6-trimethylcyclohexyl)oxy)pentan-2-ol] — 10-fold higher, 126 µM
- CCC(O)COC1C(C)CCCC1(C)C (mixture of isomers) [Compound 15, 1-((2,2,6-trimethylcyclohexyl)oxy)butan-2-ol] — 10-fold higher, 126 µM
- CC1(C)/C(=C\CO)C2CCC1C2 (racemic) [Compound 8, DL-Patchenol] — 2.5-fold higher, 31.6 µM
- CCC1OC2CC(C)(C)[C@@]34CC[C@@H](C3)C(C)(C)C4C2O1 (stereo in doubt) [Compound 20, 6-Ethyl-2,2,10,10-tetramethyl-5,7-dioxatetracyclo[9.2.1.01,9.04,8]tetradecane] — the same, 12.6 µM
- CC1OC2CC(C)(C)[C@@]34CC[C@@H](C3)C(C)(C)C4C2O1 (stereo in doubt) [Compound 23, 2,2,6,10,10-Pentamethyl-5,7-dioxatetracyclo[9.2.1.01,9.04,8]tetradecane] — 2.5-fold lower, 5.01 µM
- CC1(C)C2C3OCOC3CC(C)(C)[C@]23CC[C@H]1C3 (stereo in doubt) [Compound 24, 2,2,10,10-Tetramethyl-5,7-dioxatetracyclo[9.2.1.01,9.04,8]tetradecane] — within 1.5-fold, 10 µM
- COC[C@@H](C)C1=C2C(C)(C)[C@H]3CC[C@@]2(C3)C(C)(C)CC1 (stereo in doubt) [Compound 26, 5-(1-Methoxypropan-2-yl)-2,2,7,7-tetramethyltricyclo[6.2.1.01,6]undec-5-ene] — 5-fold lower, 2.51 µM
- CC1(C)CCC[C@]2(C)C[C@]3(CCC12)CO3 (stereo in doubt) [Compound 38, 4,4,8a-Trimethylspiro[2,3,4a,5,6,8-hexahydro-1H-naphthalene-7,2′-oxirane]] — 4-fold higher, 50.1 µM
- CCCC(O)CCC1C(C)CCCC1(C)C (centres unmarked) [Compound 1, Norlimbanol] — 3.2-fold lower, 3.98 µM
- CCC(O)COC1CCCCC1C(C)(C)C (centres unmarked) [Compound 2, Ambercore] — the same, 12.6 µM
- CCC12CCC3C(C)(C)CCCC3(C)C1COC2 (centres unmarked) [Compound 3, Grisalva] — 2-fold higher, 25.1 µM
- CCCC(O)COC1C2(C)CCC(C2)C1(C)C (centres unmarked) [Compound 5, 1-((1,3,3-trimethylbicyclo[2.2.1]heptan-2-yl)oxy)pentan-2-ol] — 4-fold higher, 50.1 µM
- CCCC(=O)COC1C2(C)CCC(C2)C1(C)C (centres unmarked) [Compound 6, 1-((1,3,3-trimethylbicyclo[2.2.1]heptan-2-yl)oxy)pentan-2-one] — 4-fold higher, 50.1 µM
- CCC(O)COC1C2(C)CCC(C2)C1(C)C (centres unmarked) [Compound 7, 1-((1,3,3-trimethylbicyclo[2.2.1]heptan-2-yl)oxy)butan-2-ol] — 4-fold higher, 50.1 µM
- CC(C)[C@H]1OCC[C@]2(CC3CC[C@]2(C)C3(C)C)O1 [Compound 9, Belambre] — 8-fold lower, 1.58 µM
- CC1OC[C@H](C)C2(CC3CCC2(C)C3(C)C)O1 (stereo partly drawn) [Compound 10, 1′,2,5(S),7′,7′-Pentamethyl-spiro[1,3-dioxane-4,2′-bicyclo[2.2.1]heptane]] — 5-fold lower, 2.51 µM
- CC1OCC(C)C2(CC3CCC2(C)C3(C)C)O1 (centres unmarked) [Compound 11, 1′,2,5,7′,7′-Pentamethylspiro[1,3-dioxane-4,2′-bicyclo[2.2.1]heptane]] — 6.3-fold lower, 2 µM
- CC(C)[C@]12C[C@@H]3OC(C)(C)O[C@]3(C)[C@H](C1)C(C)(C)C2 [Compound 13, 2,4,4,10,10-Pentamethyl-8-propan-2-yl-3,5-dioxatricyclo[6.2.1.02,6]undecane] — 32-fold lower, 0.398 µM
- CC1(C)CCC[C@]2(C)[C@H]3CCO[C@]3(C)CC[C@@H]12 [Compound 18, Ambroxan or (−)-Ambroxide] — 2.5-fold higher, 31.6 µM
- CC(=O)OCC1CCC(C)(C)C23CC4C[C@H]2C13C4(C)C (some centres unmarked) [Compound 19, Amboryl acetate] — 5-fold higher, 63.1 µM
- CC(C=O)C1=C2C(C)(C)[C@H]3CC[C@@]2(C3)C(C)(C)CC1 (some centres unmarked) [Compound 21, 5-(1-Oxopropan-2-yl)isolongifol-5-ene] — 25-fold lower, 0.501 µM
- CC(O)C(C)C1=C2C(C)(C)[C@H]3CC[C@@]2(C3)C(C)(C)CC1 (some centres unmarked) [Compound 22, 5-(3-Hydroxybutan-2-yl)isolongifol-5-ene] — 8-fold lower, 1.58 µM
- CCC(CO)C1=C2C(C)(C)[C@H]3CC[C@@]2(C3)C(C)(C)CC1 (some centres unmarked) [Compound 27, 5-(1-Hydroxybutan-2-yl)isolongifol-5-ene] — 4-fold lower, 3.16 µM
- CCC(COC)C1=C2C(C)(C)[C@H]3CC[C@@]2(C3)C(C)(C)CC1 (some centres unmarked) [Compound 30, 5-(1-Methoxybutan-2-yl)isolongifol-5-ene] — 5-fold lower, 2.51 µM
- CCC(COC)C1=CCC(C)(C)[C@@]23CC[C@@H](C2)C(C)(C)C13 (some centres unmarked) [Compound 31, 5-(1-methoxybutan-2-yl)isolongifol-4-ene] — 3.2-fold lower, 3.98 µM
- CC1(C)C2C(=O)CCC(C)(C)[C@]23CC[C@H]1C3 (stereo partly drawn) [Compound 32, (1S,8S)-2,2,7,7-Tetramethyltricyclo[6.2.1.01,6]undecan-5-one] — 1.6-fold higher, 20 µM
- CC(=O)C1(C)CC2=C(CCCC2(C)C)CC1C (centres unmarked) [Compound 34, Sylvamber] — 2-fold higher, 25.1 µM
- CC1O[C@@]12CC[C@H]1C(C)(C)CCC[C@]1(C)[C@H]2C (some centres unmarked) [Compound 35, 3′,4,4,8,8a-Pentamethylspiro[2,3,4a,5,6,8-hexahydro-1H-naphthalene-7,2′-oxirane]] — 2.5-fold higher, 31.6 µM
- CC1O[C@@]12CC[C@H]1C(C)(C)CCC[C@]1(C)C2 (some centres unmarked) [Compound 36, 3′,4,4,8a-Tetramethylspiro[2,3,4a,5,6,8-hexahydro-1H-naphthalene-7,2′-oxirane]] — 1.6-fold higher, 20 µM
- C[C@H]1[C@]2(CCC3C(C)(C)CCC[C@@]31C)CO2 (some centres unmarked) [Compound 37, 4,4,8,8a-Tetramethylspiro[2,3,4a,5,6,8-hexahydro-1H-naphthalene-7,2′-oxirane]] — 40-fold higher, 501 µM
- CC(CO)C1CCC(C)(C)[C@@]23CC[C@@H](C2)C(C)(C)C13 (some centres unmarked) [Compound 39, 5-(1-Hydroxypropan-2-yl)isolongifolane] — 8-fold lower, 1.58 µM
- CCOCOC1CCCCCCCCCCC1 [Compound 40, Boisambrene] — 4-fold higher, 50.1 µM
- CC(=O)C1CC/C(C)=C\CC/C(C)=C\C/C=C\1C (centres unmarked) [Compound 42, Cyclisone/Trimofix] — 1.6-fold higher, 20 µM
- CC1(C)C/C=C\CC/C=C\CCC2OC21C (centres unmarked) [Compound 43, Cedroxyde] — 6.3-fold lower, 2 µM
- C/C1=C/CCC2(C)OC2CC/C(C)=C\CC1 (centres unmarked) [Compound 44, (E)-woody epoxide] — 1.6-fold lower, 7.94 µM
- C[C@]12CCC(=O)C[C@@H]1CC[C@@H]1[C@@H]2CC[C@]2(C)C=CC[C@@H]12 [Compound 45, 5α-Androst-16-en-3-one] — 1.6-fold higher, 20 µM
- C[C@@]12C=CCC1C1CC=C3C[C@@H](O)CC[C@]3(C)C1CC2 (some centres unmarked) [Compound 46, Androstadienol] — the same, 12.6 µM
